Measured values taken from US4591551A, “Radioenzymatic method for assaying normetanephrine and octopamine” (University of Southern California, priority 1984, dated 1986).

Assays:
[1] = type: physicochemical
Method: Blood specimens were collected into commercial vactainer tubes containing 15 milligrams EDTA for 10 ml of blood and placed on ice immediately. After centrifugation at 4° C., exactly 1 ml of plasma was transferred to a 10 ml test tube and kept in the freezer at -20° C. until the assay was performed. In this condition, plasma normetanephrine is stable for at least 2 months.

[2] = biological target: T1, phenylethanolamine-N-methyl transferase (Bos taurus, UniProt P10938); experiment: Substrate specificity: cross reactivities of catecholamines and congeners in the radioenzymatic assay for plasma normetanephrine; type: biochemical, bovine; conditions: for % / Counts per Minute, Sample: 500 pg of amine added; for %: sample counts; for Counts per Minute, Sample: without normetanephrine internal standard, metanephrine band after TLC; for Percentage Interference: 500 pg of amine in assay for plasma normetanephrine; for Counts per Minute, Normetanephrine Standard: 500 pg of amine plus 250 pg of normetanephrine; for Normetanephrine: apparent normetanephrine from 500 pg of amine, calculated using 250 pg in the formula
T1 construct: PNMT was partially purified from bovine adrenal medulla; from tissue; host or cells: bovine adrenal medulla
T1 sequence (P10938 1-283): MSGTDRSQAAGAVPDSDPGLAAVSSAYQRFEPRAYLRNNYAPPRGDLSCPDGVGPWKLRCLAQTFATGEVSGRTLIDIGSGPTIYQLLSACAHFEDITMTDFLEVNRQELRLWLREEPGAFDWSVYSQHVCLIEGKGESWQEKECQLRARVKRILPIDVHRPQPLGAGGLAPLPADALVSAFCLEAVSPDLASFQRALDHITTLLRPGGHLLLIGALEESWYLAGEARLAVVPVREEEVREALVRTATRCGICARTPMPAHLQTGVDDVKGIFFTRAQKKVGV
Method: (§1) PNMT was partially purified from bovine adrenal medulla according to the method of Henry et al, supra. In accordance with that procedure, thirty-three grams of medullary tissue are dissected from 15 fresh bovine adrenals and homogenized in 280 ml of 1.19 percent KCl solution. The homogenate is centrifuged at 40,000 g for one hour and the supernatant is filtered and recentrifuged at 100,000 g for one hour. To 250 ml of the supernatant are added 5 ml of 0.05M sodium phosphate buffer, pH 7.5 and 44 gm of solid ammonium sulfate. Another 19.8 gm of ammonium sulfate per 100 ml are added. The supernatant is discarded and the precipitate resuspended in 100 ml of 55 percent saturated ammonium sulfate--0.0125M sodium phosphate. The solution is recentrifuged and for each 100 ml of supernatant, 17 gm of ammonium sulfate are added. After centrifugation, the precipitate is resuspended in 50 ml of 0.005M tris, pH 7.4, containing 0.1 mM dithiothreitol and dialyzed in four liters of the buffer with four changes in a 16 hour period. The dialyzed enzyme is then centrifuged at 40,000 g for 10 minutes and frozen in small aliquots.
Duplicate aliquots (20-50 microliters) of the processed specimens were transferred to disposable culture tubes (13×100 mm); 10 ul of deionized water was added to one and the same volume of normetanephrine standard solution (100 pm) was added to the other. Two tubes of 50 microliters of 0.001N NCl were used for blanks instead of plasma for each assay run. The enzymatic reaction was initiated by the addition of a mixture of 10 ul each of 0.5M tris-HCl with 12.5 mM EDTA (pH 10.0), diluted tritiated […] (SAM-H^3 at 1.25 microCurie) and phenylethanolamine-N-methyl transferase prepared as above. The pH of the incubation mixture was 9.2. The incubation was carried out for sixty minutes at 37° C. and terminated by cooling in an ice bath and the addition of 100 ul of 0.5M borate buffer (pH 10.0) containing 5 micromole of metanephrine to facilitate the location of chromotography bands.
Radioactive products were extracted into 3 ml of toluene isoamyl-alcohol mixture (3:2) by agitation on a vortex mixer. The organic layer was separated by centrifugation, transferred to another set of tubes after quick freezing of the aqueous layer in a dry ice acetone bath and subsequently washed by 50 microliter of 0.5M borate buffer (pH 10.0) with similar procedures. Then the organic layer was transferred to a 15 ml centrifuge tube and the N-methylated products were back-extracted to 130 microliter of 0.1N acetic acid. After centrifugation, the organic layer was aspirated off and 100 microliter of the acetic acid phase was spotted on a silica gel plate with a multiple spotter. Thin layer chromatography was carried out in the chamber using as a developing solvent a mixture of tertiary amyl-alcohol, methylamine (40%), benzene (6:3:2, total 73.5 ml) for ninety minutes, in accordance with the procedure of Peuler and Johnson, supra. Then the plate was dried immediately. The metanephrine spot was marked under ultraviolet light, scraped off with a knife and transferred to a plastic vial containing 1 ml of 1N NH4 OH. Ten mls of ScintiVerse (obtained from the Fisher Scientific Co.) was added and the vial was left to stand for at least one hour prior to counting in a liquid scintillation counter. The plasma normetanephrine concentration was calculated from the radioactivity according to the formula given above.
Assays were conducted as in Example I using the solvent system of that example but in which the sample contained 250 pg of normetanephrine and in which there was added to the incubation mixture in individual tubes 10 microliters of the respective reagent listed in Table II.

PNMT = experiment: Isomer preference of normetanephrine as substrate for PNMT; type: biochemical, bovine; conditions: vs dl-normetanephrine
Method: as §1
1-Normetanephrine is the preferred isomer as a substrate for PNMT and yielded about 1.5 times the activity of dl-normetanephrine. Thus, 1-normetanephrine should be used for calibration.

[3] = biological target: T1, phenylethanolamine-N-methyl transferase; experiment: Radioenzymatic assay of octopamine in urine (counted as synephrine); type: biochemical, bovine
Method: The procedure of Examples I and II can be repeated but with the addition of 100 pg of octopamine in place of the 100 pg of normetanephrine as an internal standard, and by the addition of 5 micromole of unlabeled synephrine in place of the 5 micromole of metanephrine to facilitate chromatography band location. The pH of the incubation mixture is 9.3. The solvent system used is chloroform-ethanol-methylamine (40%) 16:3:2. In this case, synephrine bands are scraped into the scintillation vial and their counts per minute determined to yield the amount of octopamine, as synephrine.
A linear relationship was shown when octopamine was added either to urine or to water at 3-500 pg. Similarly, a linear relation was observed when both the synephrine and dimethyloctopamine were counted together after thin layer chromatography. These findings indicate that methylation of synephrine is proportioned to the added amount of octopamine and therefore validates the measurement of octopamine with this assay. When the synephrine was recovered from thin layer chromatography, it yielded a lower blank and therefore increased sensitivity. […] An additional wash with borate buffer (pH 10) and the use of chloroform-ethanol-methylamine as developing solvents further reduced the blank to a mean value of 56±7 cpm (N=13). Two and one-half octopamine in urine yields about 120-140 cpm. […]

SMILES | plasma normetanephrine is stable [1] | % [2] | Counts per Minute, Sample [2] | Percentage Interference [2] | Counts per Minute, Normetanephrine Standard [2] | Normetanephrine [2] | activity as substrate for PNMT relative to dl-normetanephrine (PNMT) | counts yielded by octopamine in urine ([3]; One hundred pg of octopamine in urine) | counts yielded by octopamine in urine ([3]; Two and one-half octopamine in urine)
COc1cc(C(O)CN)ccc1O (stereo not drawn) [Normetanephrine, normetanephrine] | at least 2 months | – | – | – | – | – | – | – | –
NC[C@H](O)c1ccc(O)c(O)c1 [Norepinephrine, norepinephrine] | – | 1.6% | 101 Counts per Minute | 0.1% | 6020 Counts per Minute | 0.6 pg | – | – | –
COc1cc([C@@H](O)CN)ccc1O [1-Normetanephrine] | – | – | – | – | – | – | about 1.5 times | – | –
NCC(O)c1ccc(O)cc1 (stereo not drawn) [Octopamine, octopamine] | – | 11.8% | 726 Counts per Minute | 4.9% | 7261 Counts per Minute | 24.5 pg | – | 2,500-3,000 cpm | 120-140 cpm
NCCc1ccc(O)cc1 [Tyramine, tyramine] | – | 1.3% | 81 Counts per Minute | 0% | 6090 Counts per Minute | 0 pg | – | – | –
CNCC(O)c1ccc(O)cc1 (stereo not drawn) [Synephrine, synephrine] | – | 4.2% | 262 Counts per Minute | 1.5% | 6160 Counts per Minute | 7.5 pg | – | – | –
NCCc1ccc(O)c(O)c1 [Dopamine, dopamine] | – | 1.3% | 80 Counts per Minute | 0% | 6130 Counts per Minute | 0 pg | – | – | –
CNC[C@H](O)c1ccc(O)c(O)c1 [Epinephrine, epinephrine] | – | 1.3% | 80 Counts per Minute | 0% | 6124 Counts per Minute | 0 pg | – | – | –
CNCC(O)c1ccc(O)c(OC)c1 (stereo not drawn) [Metanephrine, metanephrine] | – | 2.9% | 180 Counts per Minute | 0.7% | 6363 Counts per Minute | 3.8 pg | – | – | –
